Laboratory results as given in PMC3108484 (Frontiers in Pharmacology, 2011).
Read-outs that look alike come from different tables or passages of the source. One block for each compound: values may come before it.

What was measured:
5-HT4 receptor = 5-HT4 receptor (Cavia porcellus, UniProt O70528); test: Guinea pig colonic longitudinal muscle/myenteric plexus; details: for Guinea pig colonic LMMP contractile activity IA (mean % 5-HT max ± SEM): isolated tissue, % of primed 5-HT (0.3 μM) maximum
rat esophagus = test: Rat esophageal relaxation; format: in vivo; details: cumulative i.d. dosing, anesthetized rats
hERG potassium channel = hERG potassium channel (Homo sapiens, UniProt Q12809); test: in vitro
human 5-HT4(c) receptor = human 5-HT4(c) receptor (Homo sapiens, UniProt Q13639); format: cell-based; details: for pKb of GR113808 (Schild regression): GR113808 0.6, 1.7, or 5 nM, 95% CI
[1] = biological target: human 5-HT4(c) (h5-HT4(c)) receptor (Homo sapiens, UniProt Q13639); test: biochemical
[2] = tested on: canine antrum, duodenum, and jejunum; test: Dog gastrointestinal contractility; format: in vivo; details: oral, conscious fasted dogs; TD-8954 0.01 and 0.03 mg/kg, tegaserod 0.1 and 0.3 mg/kg

Chain of human 5-HT4(c) receptor (Q13639 1-380 isoform Q13639-4): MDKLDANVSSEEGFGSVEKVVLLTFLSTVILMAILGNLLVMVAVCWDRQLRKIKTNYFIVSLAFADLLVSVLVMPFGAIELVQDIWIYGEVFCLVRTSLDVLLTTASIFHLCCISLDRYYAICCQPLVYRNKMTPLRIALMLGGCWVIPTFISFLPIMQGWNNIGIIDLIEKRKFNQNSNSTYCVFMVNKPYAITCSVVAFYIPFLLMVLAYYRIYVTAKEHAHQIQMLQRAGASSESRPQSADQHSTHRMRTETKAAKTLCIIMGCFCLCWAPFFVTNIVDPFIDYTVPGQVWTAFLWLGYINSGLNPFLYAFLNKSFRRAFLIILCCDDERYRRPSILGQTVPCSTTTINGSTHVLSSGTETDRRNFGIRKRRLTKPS
Chain of 5-HT4 receptor (O70528 whole entry): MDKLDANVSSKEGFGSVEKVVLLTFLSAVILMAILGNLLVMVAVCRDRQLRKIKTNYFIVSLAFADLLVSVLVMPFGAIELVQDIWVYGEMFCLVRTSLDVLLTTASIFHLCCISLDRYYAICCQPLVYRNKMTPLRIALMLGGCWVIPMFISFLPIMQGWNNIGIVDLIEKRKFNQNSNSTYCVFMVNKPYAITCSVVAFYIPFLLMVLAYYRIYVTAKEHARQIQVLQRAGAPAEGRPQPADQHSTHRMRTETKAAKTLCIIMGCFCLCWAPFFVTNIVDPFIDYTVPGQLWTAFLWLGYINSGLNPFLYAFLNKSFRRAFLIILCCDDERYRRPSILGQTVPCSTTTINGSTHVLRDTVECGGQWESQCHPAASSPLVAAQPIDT
Chain of human 5-HT4(c) (h5-HT4(c)) receptor (Q13639 1-380 isoform Q13639-4): as the sequence (Q13639 1-380 isoform Q13639-4) above
Chain of hERG potassium channel (Q12809 whole entry): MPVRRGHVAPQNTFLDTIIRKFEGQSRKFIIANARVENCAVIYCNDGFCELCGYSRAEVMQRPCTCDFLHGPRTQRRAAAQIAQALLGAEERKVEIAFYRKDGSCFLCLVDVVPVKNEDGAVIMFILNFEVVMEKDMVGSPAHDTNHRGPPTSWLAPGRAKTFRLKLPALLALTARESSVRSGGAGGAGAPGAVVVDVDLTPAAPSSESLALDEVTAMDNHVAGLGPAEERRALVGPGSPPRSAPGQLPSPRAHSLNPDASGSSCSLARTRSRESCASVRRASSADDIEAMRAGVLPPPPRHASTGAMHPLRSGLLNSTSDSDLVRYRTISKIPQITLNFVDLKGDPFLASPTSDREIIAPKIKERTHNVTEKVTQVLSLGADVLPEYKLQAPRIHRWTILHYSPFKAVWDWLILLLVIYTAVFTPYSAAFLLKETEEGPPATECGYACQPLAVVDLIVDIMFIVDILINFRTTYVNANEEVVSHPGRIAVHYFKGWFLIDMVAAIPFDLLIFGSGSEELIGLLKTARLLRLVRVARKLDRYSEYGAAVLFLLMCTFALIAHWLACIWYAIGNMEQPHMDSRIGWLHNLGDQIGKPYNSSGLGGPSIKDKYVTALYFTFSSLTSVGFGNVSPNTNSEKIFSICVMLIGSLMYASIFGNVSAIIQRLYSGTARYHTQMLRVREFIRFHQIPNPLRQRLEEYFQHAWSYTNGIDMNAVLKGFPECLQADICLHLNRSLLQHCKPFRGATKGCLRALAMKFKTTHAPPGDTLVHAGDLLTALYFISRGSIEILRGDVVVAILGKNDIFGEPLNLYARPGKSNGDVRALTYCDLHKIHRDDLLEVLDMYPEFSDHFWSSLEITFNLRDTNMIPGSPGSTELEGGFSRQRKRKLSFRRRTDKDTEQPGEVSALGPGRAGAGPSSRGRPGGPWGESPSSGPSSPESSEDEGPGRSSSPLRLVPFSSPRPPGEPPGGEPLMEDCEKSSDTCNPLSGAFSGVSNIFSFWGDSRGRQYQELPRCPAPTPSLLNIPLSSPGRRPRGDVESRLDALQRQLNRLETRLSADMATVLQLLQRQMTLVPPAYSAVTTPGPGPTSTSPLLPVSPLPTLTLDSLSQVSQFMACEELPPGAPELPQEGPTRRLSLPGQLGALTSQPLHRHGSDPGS

EC50 (human 5-HT4(c) receptor): 501 nM
EC50 (5-HT4 receptor): 3980 nM
Guinea pig colonic LMMP contractile activity IA (mean % 5-HT max ± SEM) (5-HT4 receptor): 37 ± 2 % 5-HT max
Guinea pig colonic LMMP contractile activity IA (mean % 5-HT max ± SEM) (5-HT4 receptor; listed as mosapride): 37 % 5-HT max
Ki [1]: 158 nM
Structure (SMILES): CCOc1cc(N)c(Cl)cc1C(=O)NCC1CN(Cc2ccc(F)cc2)CCO1 (stereo not shown) [Mosapride, mosapride]
dose associated with a relaxation response of 0.1 mm (rat esophagus): 4.37 mg/kg

shift of the TD-8954 concentration–response curve (5-HT4 receptor; piboserod 0.3 μM, guinea pig colonic LMMP): 614 fold
Structure (SMILES): CCCCN1CCC(CNC(=O)c2c3n(c4ccccc24)CCCO3)CC1 [piboserod]

Second part, the compound before the results:

Structure (SMILES): COc1cc(N)c(Cl)cc1C(=O)NC1CCN(CCCOc2ccc(F)cc2)CC1OC (stereo not shown) [Cisapride, cisapride]
Guinea pig colonic LMMP contractile activity IA (mean % 5-HT max ± SEM) (5-HT4 receptor): 75 ± 3 % 5-HT max
Guinea pig colonic LMMP contractile activity IA (mean % 5-HT max ± SEM) (5-HT4 receptor; listed as cisapride): 75 % 5-HT max
dose associated with a relaxation response of 0.1 mm (rat esophagus): 2.66 mg/kg
inhibition at 0.02 µM (hERG potassium channel): 65%

Structure (SMILES): Cn1cc(C(=O)OCC2CCN(CCNS(C)(=O)=O)CC2)c2ccccc21 [GR113808]
pKb of GR113808 (Schild regression) (human 5-HT4(c) receptor; against 5-HT, cAMP accumulation): 10.3 (95% CI: 10.2–10.4)
pKb of GR113808 (Schild regression) (human 5-HT4(c) receptor; against TD-8954, cAMP accumulation): 10.3 (95% CI: 10.2–10.5)

Structure (SMILES): COCCCN1CCC(NC(=O)c2cc(Cl)c(N)c3c2OCC3)CC1 [Prucalopride, prucalopride]
dose associated with a relaxation response of 0.1 mm (rat esophagus): 0.30 mg/kg

Structure (SMILES): [H]/N=C(/NCCCCC)N/N=C/c1c[nH]c2ccc(OC)cc12 [Tegaserod, tegaserod]
Guinea pig colonic LMMP contractile activity IA (mean % 5-HT max ± SEM) (5-HT4 receptor): 45 ± 13 % 5-HT max
Guinea pig colonic LMMP contractile activity IA (mean % 5-HT max ± SEM) (5-HT4 receptor; listed as tegaserod): 45 % 5-HT max
dose associated with a relaxation response of 0.1 mm (rat esophagus): 2.43 mg/kg
effect on contractility in the antrum, duodenum, and jejunum [2]: increases in contractility
Ki [1]: 2.51 nM
